Data set [1] concerns Bloodstream form T. brucei (strain 427). The experiment in a line: Trypanocidal activity against bloodstream form T. brucei (Alamar Blue growth inhibition). The format is cell-based, Trypanosoma brucei. The note with it: 48 hours + overnight Alamar Blue; for IC50: concentration that inhibits growth by 50%; for IC90: concentration that inhibits growth by 90%. Here is the method:
Bloodstream form T. brucei (strain 427) were cultured at 37 °C in modified Iscove's medium. Trypanocidal activity was assessed by growing parasites in microtiter plates in the presence of various drug concentrations. […] The plates were incubated for 48 hours at 37 °C and 20 μL Alamar Blue was then added to each well. After an additional overnight incubation, the fluorescence was determined. Inhibition of growth was calculated by comparison with control values and IC50 and IC90 values were determined in triplicate using linear regression analysis.
(In general: The colour change of resazurin is a common sign of viable cells or microbes.)

Data set [2] is described as follows: Cytotoxic activity against rat skeletal myoblast L6 cells (Alamar Blue). The format is cell-based. Particulars: rat, L6 cells (rat skeletal muscle line); cytotoxicity, 6 days incubation + 8 hours Alamar Blue. As for the experimental part:
(§1) Cytotoxicity against mammalian cells was assessed using microtitre plates. Briefly, L6 cells (a rat skeletal muscle line) were seeded at 1 × 10^4 mL^–1 in 200 μL of growth medium containing 7 different compound concentrations in a range previously established to encompass both the IC50 and IC90 values. The plates were incubated for 6 days at 37 °C and 20 μL Alamar Blue (Biosource UK Ltd) was then added to each well. After an additional 8 hours incubation, the fluorescence was determined using a FLUOstar Omega fluorescent plate reader (BMG Labtech). Inhibition of growth was calculated by comparison with control values and IC50 and IC90 values were determined in triplicate using linear regression analysis.

Another data set relates to L6 cells. Described as above. The format is cell-based. The note with it: ratio of IC50 values obtained with L6 cells and T. brucei. Here is the method:
as §1

The source of these data is publication PMC7522794, “Synthesis and evaluation of novel 2,4-disubstituted arylthiazoles against T. brucei” (RSC Medicinal Chemistry, 2019).

Counter-ions that a name gives are not always drawn.

Turning to `Cc1ccoc1C(=O)NCCc1csc(-c2ccc(F)c(C34CC5CC(CC(C5)C3)C4)c2)n1` [Compound 1h, N-{2-[2-(3-(1-Tricyclo[3.3.1.1^3,7]decyl)-4-fluorophenyl)thiazol-4-yl]ethyl}-3-methylfuran-2-ylcarboxamide], the IC50 in data set [1] (Trypanosoma brucei) is > 20 µM.

Regarding `CCCC(=O)NCCc1csc(-c2ccc(F)c(C34CC5CC(CC(C5)C3)C4)c2)n1` [Compound 1e, N-{2-[2-(3-(1-Tricyclo[3.3.1.1^3,7]decyl)-4-fluorophenyl)thiazol-4-yl]ethyl}butylamide], the IC50 in data set [1] (Trypanosoma brucei) was > 25 µM.

On to `NCCc1csc(-c2ccc(F)c(C34CC5CC(CC(C5)C3)C4)c2)n1` (as salt: hydrochloride) [Compound 1a, 2-{2-[3-(1-Tricyclo[3.3.1.1^3,7]decyl)-4-fluorophenyl]thiazol-4-yl}ethan-1-amine], for which the melting point was in the range of 246 to 248 °C.

The compound `CC(=O)NCCc1csc(-c2ccc(F)c(C34CC5CC(CC(C5)C3)C4)c2)n1` (as salt: fumarate) [Compound 1d, N-{2-[2-(3-(1-Tricyclo[3.3.1.1^3,7]decyl)-4-fluorophenyl]thiazol-4-yl]ethyl}acetamide] came in with a melting point of 143 to 145 °C.

On to `NCCc1csc(-c2ccc(C34CC5CC(CC(C5)C3)C4)cc2)n1` [Compound 2a, 2-{2-[4-(1-Tricyclo[3.3.1.1^3,7]decyl)phenyl]thiazol-4-yl}ethan-1-amine], for which, in data set [1] (Trypanosoma brucei), the IC50 stood at 0.8 ± 0.03 µM and the concentration for an effect of 90% (IC90) came to 1.17 ± 0.01 µM. Further, the IC50 in data set [2] is 4.08 ± 0.15 µM. Further, the “S.I. (selectivity index)” value in the data set on L6 cells was 5.1.

Turning to `CNCCc1csc(-c2ccc(C34CC5CC(CC(C5)C3)C4)cc2)n1` (as salt: fumarate) [Compound 2b, 2-{2-[4-(1-Tricyclo[3.3.1.1^3,7]decyl)phenyl]thiazol-4-yl}-N-methylethan-1-amine], the melting point lay in the range of 147 to 149 °C.

As to `O=C(NCCc1csc(-c2ccc(F)c(C34CC5CC(CC(C5)C3)C4)c2)n1)N1CCCC1` [Compound 1i, N-(2-(2-(3-(1-Tricyclo[3.3.1.1^3,7]decyl)-4-fluorophenyl)thiazol-4-yl)ethyl)pyrrolidin-1-yl-carboxamide], the IC50 in data set [1] (Trypanosoma brucei) is > 20 µM.

With `O=C(NCCc1csc(-c2ccccc2)n1)C12CC3CC(CC(C3)C1)C2` [Compound 4a, N-(2-(2-Phenylthiazol-4-yl)ethyl)(1-tricyclo[3.3.1.1^3,7]decane)carboxamide], the melting point is 135 to 136 °C. For the same compound, in data set [1] (Trypanosoma brucei), the half-inhibitory concentration (IC50) came out at 12.2 ± 0.8 µM and the IC90 was 18.7 ± 0.4 µM.

`CC(=O)NCCc1csc(-c2ccc(C34CC5CC(CC(C5)C3)C4)cc2)n1` [Compound 2d, N-{2-[2-(4-(1-Tricyclo[3.3.1.1^3,7]decyl)phenyl)thiazol-4-yl]ethyl}acetamide]: the 50% inhibitory concentration (IC50) in data set [1] (Trypanosoma brucei) was > 20 µM.

In turn, `O=C(NCCc1nc(-c2ccccc2)cs1)C12CC3CC(CC(C3)C1)C2` [Compound 4c, N-[2-(4-Phenylthiazol-2-yl)ethyl](1-tricyclo[3.3.1.1^3,7]decane)carboxamide] returned a melting point of 107 to 108 °C. Besides, in data set [1] (Trypanosoma brucei), the IC50 was 9.82 ± 0.22 µM and the IC90 was found to be 13.1 ± 0.2 µM.

For the compound `OCCc1csc(-c2ccc(C34CC5CC(CC(C5)C3)C4)cc2)n1` [Compound 2g, 2-{2-[4-(1-Tricyclo[3.3.1.1^3,7]decyl)phenyl]thiazol-4-yl}ethan-1-ol], the melting point was 93 to 94 °C. In data set [1] (Trypanosoma brucei), the IC50 is ~10 µM.

Regarding `CN(C)CCc1csc(-c2ccc(C34CC5CC(CC(C5)C3)C4)cc2)n1` [Compound 2c, 2-{2-[4-(1-Tricyclo[3.3.1.1^3,7]decyl)phenyl]thiazol-4-yl}-N,N-dimethylethan-1-amine], in data set [1] (Trypanosoma brucei), the IC50 was found to be 1.27 ± 0.07 µM and the IC90 worked out at 1.6 ± 0.22 µM.

Regarding `NCCc1csc(-c2ccc(C34CC5CC(CC(C5)C3)C4)cc2)n1` (as salt: hydrochloride) [Compound 2a, 2-{2-[4-(1-Tricyclo[3.3.1.1^3,7]decyl)phenyl]thiazol-4-yl}ethan-1-amine], the melting point was 225 °C (dec.).

The compound `N#CCc1csc(-c2ccc(C34CC5CC(CC(C5)C3)C4)cc2)n1` [Compound 2e, 2-{2-[4-(1-Tricyclo[3.3.1.1^3,7]decyl)phenyl]thiazol-4-yl}acetonitrile] yielded a melting point of 159 to 160 °C. In addition, the IC50 in data set [1] (Trypanosoma brucei) was > 20 µM.

In the case of `N#CSCc1csc(-c2ccc(C34CC5CC(CC(C5)C3)C4)cc2)n1` [Compound 2f, 2-[4-(1-Tricyclo[3.3.1.1^3,7]decyl)phenyl]-4-(thiocyanatemethyl)thiazole], the melting point lay within 169 to 170 °C. Also, in data set [1] (Trypanosoma brucei), the IC50 was ~10 µM.

As for `[N-]=[N+]=NCCc1csc(-c2ccc(C34CC5CC(CC(C5)C3)C4)cc2)n1` [Compound 2h, 2-[4-(1-Tricyclo[3.3.1.1^3,7]decyl)phenyl]-4-(2-azidoethyl)thiazole], in data set [1] (Trypanosoma brucei), the IC50 was > 20 µM.

`CNCCc1csc(-c2ccc(F)c(C34CC5CC(CC(C5)C3)C4)c2)n1` (as salt: hydrochloride) [Compound 1b, 2-{2-[3-(1-Tricyclo[3.3.1.1^3,7]decyl)-4-fluorophenyl]thiazol-4-yl}-N-methylethan-1-amine] gave a melting point of 221 to 223 °C.

For `CC1(C)[C@@H]2CC[C@]1(CS(=O)(=O)NCCc1csc(-c3ccccc3)n1)C(=O)C2` [Compound 4b, 1-((1R,4R)-7,7-Dimethyl-2-oxobicyclo[2.2.1]hept-1-yl)-N-(2-(2-phenylthiazol-4-yl)ethyl)methanesulfonamide], in data set [1] (Trypanosoma brucei), the IC50 came to 20.6 ± 0.7 µM and the IC90 worked out at 31.1 ± 0.3 µM.

In the case of “1-{2-[4-(1-Tricyclo[3.3.1.1^3,7]decyl)phenyl]thiazol-4-yl}guanidine [Compound 3e]”, the IC50 in data set [1] is ~10 µM.

`O=C(NCCc1csc(-c2ccc(F)c(C34CC5CC(CC(C5)C3)C4)c2)n1)c1ccc(F)cc1` (as salt: fumarate) [Compound 1g, N-{2-[2-(3-(1-Tricyclo[3.3.1.1^3,7]decyl)-4-fluorophenyl)thiazol-4-yl]ethyl}-4-fluorobenzamide] displayed a melting point of 226 to 227 °C.

As for `O=C(NCCc1csc(-c2ccc(F)c(C34CC5CC(CC(C5)C3)C4)c2)n1)N1CCCC1` (as salt: fumarate) [Compound 1i, N-(2-(2-(3-(1-Tricyclo[3.3.1.1^3,7]decyl)-4-fluorophenyl)thiazol-4-yl)ethyl)pyrrolidin-1-yl-carboxamide], the melting point was 301 °C (dec.).

The compound `CC(=O)NCCc1csc(-c2ccc(C34CC5CC(CC(C5)C3)C4)cc2)n1` (as salt: fumarate) [Compound 2d, N-{2-[2-(4-(1-Tricyclo[3.3.1.1^3,7]decyl)phenyl)thiazol-4-yl]ethyl}acetamide] gave a melting point of 164 to 166 °C.

In the case of `O=C(NCCc1csc(-c2ccc(F)c(C34CC5CC(CC(C5)C3)C4)c2)n1)c1ccc(F)cc1` [Compound 1g, N-{2-[2-(3-(1-Tricyclo[3.3.1.1^3,7]decyl)-4-fluorophenyl)thiazol-4-yl]ethyl}-4-fluorobenzamide], the IC50 in data set [1] (Trypanosoma brucei) is > 20 µM.

`CCCC(=O)NCCc1csc(-c2ccc(F)c(C34CC5CC(CC(C5)C3)C4)c2)n1` (as salt: fumarate) [Compound 1e, N-{2-[2-(3-(1-Tricyclo[3.3.1.1^3,7]decyl)-4-fluorophenyl)thiazol-4-yl]ethyl}butylamide] came in with a melting point of 291 to 293 °C.

Consider `CC(=O)NCCc1csc(-c2ccc(F)c(C34CC5CC(CC(C5)C3)C4)c2)n1` [Compound 1d, N-{2-[2-(3-(1-Tricyclo[3.3.1.1^3,7]decyl)-4-fluorophenyl]thiazol-4-yl]ethyl}acetamide], for which, in data set [1] (Trypanosoma brucei), the half-maximal inhibitory concentration (IC50) came out at 15.3 ± 0.2 µM and the IC90 was determined as 18.1 ± 0.2 µM.

For `CN(C)CCc1csc(-c2ccc(C34CC5CC(CC(C5)C3)C4)cc2)n1` (as salt: fumarate) [Compound 2c, 2-{2-[4-(1-Tricyclo[3.3.1.1^3,7]decyl)phenyl]thiazol-4-yl}-N,N-dimethylethan-1-amine], the melting point was 302 °C (dec.).

With `CN(C)CCc1csc(-c2ccc(F)c(C34CC5CC(CC(C5)C3)C4)c2)n1` (as salt: hydrochloride) [Compound 1c, 2-{2-[3-(1-Tricyclo[3.3.1.1^3,7]decyl)-4-fluorophenyl]thiazol-4-yl}-N,N-dimethylethyl-1-amine], the melting point lay within 280 to 282 °C.

Consider `O=C(NCCc1csc(-c2ccc(F)c(C34CC5CC(CC(C5)C3)C4)c2)n1)c1ccccc1` [Compound 1f, N-{2-[2-(3-(1-Tricyclo[3.3.1.1^3,7]decyl)-4-fluorophenyl)thiazol-4-yl]ethyl}benzamide], for which the IC50 in data set [1] (Trypanosoma brucei) was > 20 µM.

`Br.NCc1nc(-c2ccc(C34CC5CC(CC(C5)C3)C4)cc2)cs1` [Compound 3b, 2-{4-[4-(1-Tricyclo[3.3.1.1^3,7]decyl)phenyl]thiazol-2-yl}methanamine difumarate]: the melting point is 172 °C (dec.). In data set [1] (Trypanosoma brucei), the IC50 came out at 9.76 ± 0.77 µM and the IC90 was found to be 12.8 ± 0.2 µM. The IC50 in data set [2] was found to be 12.6 ± 0.9 µM.

With `O=C(NCCc1csc(-c2ccc(F)c(C34CC5CC(CC(C5)C3)C4)c2)n1)c1ccccc1` (as salt: fumarate) [Compound 1f, N-{2-[2-(3-(1-Tricyclo[3.3.1.1^3,7]decyl)-4-fluorophenyl)thiazol-4-yl]ethyl}benzamide], the melting point was 305 °C (dec.).

The IC50 is the concentration needed to halve the response being measured. For orientation: melting point means the temperature of the solid-liquid transition. As usually defined, the IC90 is the concentration at which the effect reaches the 90% level.
